Assay results taken from BindingDB's records for doi:10.1021/acs.biochem.6b01152 (University of California San Diego, 2017).

Experiments:
Assay in all cases: 8-[Fluo]-cAMP Fluorescence Polarization Binding Assay
[1] = target: cAMP-dependent protein kinase type I-alpha regulatory subunit [R241A] (Homo sapiens, UniProt P10644, R241A)
Description: (§1) The ability of the R subunit basic patch mutants to bind cAMP in the absence of the C subunit was tested using the fluorescent cAMP analogue, 8-[fluo]-cAMP (Biolog), used at a final concentration of 10 nM. Wells were titrated with a rangeof R subunit concentrations (from 0 to 125 nM), which were diluted with FP assay buffer.

[2] = target: cAMP-dependent protein kinase type I-alpha regulatory subunit [R243A] (Homo sapiens, UniProt P10644, R243A)
Description: as §1

[3] = target: cAMP-dependent protein kinase type I-alpha regulatory subunit (Homo sapiens, UniProt P10644)
Description: as §1

[4] = target: cAMP-dependent protein kinase type I-alpha regulatory subunit [K244A] (Homo sapiens, UniProt P10644, K244A)
Description: as §1

[5] = target: cAMP-dependent protein kinase type I-alpha regulatory subunit [K242A] (Homo sapiens, UniProt P10644, K242A)
Description: as §1

Chain of cAMP-dependent protein kinase type I-alpha regulatory subunit [K244A] (P10644 whole entry K244A): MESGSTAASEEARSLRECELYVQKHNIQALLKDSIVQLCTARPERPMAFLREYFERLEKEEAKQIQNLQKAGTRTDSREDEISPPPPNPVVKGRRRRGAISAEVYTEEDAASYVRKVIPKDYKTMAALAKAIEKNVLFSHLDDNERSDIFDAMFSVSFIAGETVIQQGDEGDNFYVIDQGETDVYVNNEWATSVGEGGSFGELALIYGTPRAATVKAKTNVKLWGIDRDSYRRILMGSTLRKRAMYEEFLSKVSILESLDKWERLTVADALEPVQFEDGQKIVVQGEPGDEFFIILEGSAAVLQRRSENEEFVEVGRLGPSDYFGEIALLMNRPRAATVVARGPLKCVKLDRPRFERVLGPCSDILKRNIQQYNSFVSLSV
Chain of cAMP-dependent protein kinase type I-alpha regulatory subunit [K242A] (P10644 whole entry K242A): as the sequence (P10644 whole entry K244A) above, with K242A, A244K counted along it
Chain of cAMP-dependent protein kinase type I-alpha regulatory subunit [R241A] (P10644 whole entry R241A): as the sequence (P10644 whole entry K244A) above, with R241A, A244K counted along it
Chain of cAMP-dependent protein kinase type I-alpha regulatory subunit [R243A] (P10644 whole entry R243A): as the sequence (P10644 whole entry K244A) above, with R243A, A244K counted along it
Chain of cAMP-dependent protein kinase type I-alpha regulatory subunit (P10644 whole entry): as the sequence (P10644 whole entry K244A) above, with A244K counted along it

Kd [1]: 6.72 nM
Kd [2]: 7.29 nM
Kd [3]: 7.3 nM
Kd [4]: 7.71 nM
Kd [5]: 7.32 nM
SMILES: Nc1ncnc2c1nc(SCCNC(=S)Nc1ccc(-c3c4ccc(=O)cc-4oc4cc(O)ccc34)c(C(=O)O)c1)n2C1OC2COP(=O)(O)OC2C1O (stereo not given) [8-[Fluo]-cAMP]
